In US12416002B2, “Analysis system for orthogonal access to and tagging of biomolecules in cellular compartments” (ILLUMINA, INC., priority 2016, dated 2025):

Experiments:
[1] = tested on: nuclei of K562 cells; assay: Reverse transcription/quantitative PCR of cDNA synthesis from nuclear mRNA (Example 9, Table 4); format: cell-based, human
Procedure: Pitstop-2 treatment increases RNA output by improving cDNA synthesis from nuclear mRNA. K562 cells were lysed with 0.1% NP40. The nuclei and cytoplasm were separated and the nuclei were washed twice, then a reverse transcription/quantitative PCR protocol was performed (ThermoFisher Maxima HT RT kit, Kapa qPCR kit, RPLPO PCR primer) with (a) no additive, (b) 0.1% SDS, or (c) 30 μM Pitstop-2. The deltaCt between no reverse transcription and reverse transcription was used as the metric to report relative cDNA synthesis efficiency. Pitstop-2 treatment boosted cDNA synthesis from nuclei 4-5 fold over untreated nuclei (Table 4).

[2] = tested on: Isolated nuclei; assay: qPCR (Cq) of library yield from nuclei transposed with Nextera Tn5 in presence of Pitstop-2 (Example 4, Table 1A); format: cell-based, human; conditions: for Cq-Pitstop-2: 50,000 nuclei, 25 cy qPCR
Procedure: Using a standard cell culture protocol, 1×10^6 K562 cells (human lymphoma cell line) were collected from tissue culture flasks for tagmentation reaction. All cell pelleting/centrifugation steps were performed at 300×g for 3 min at 4° C. Freshly isolated cells were centrifuged and re-suspended in ice cold PBS (phosphate-buffered saline). The cells were pelleted again and incubated on ice while being suspended in 200 μL ice cold cell lysis buffer (Tris/NaCl/octylphenoxypolyethoxyethanol (IGEPAL CA-630 detergent)) for 5 min. Following this, nuclei were spun down for 3 min at 300×g, washed once with 200 of lysis buffer, and pelleted nuclei were transposed with Nextera Tn5 Transposase (TDE1) for 30 min at 55° C. in 1× Tagment DNA buffer (PN:15027866), supplemented with ([…]) or ([…]). Nuclei from each sample were pelleted and most of the supernatant was carefully removed.
(§1) One Cq value roughly corresponds to two fold difference in DNA Input. […]

[3] = tested on: Isolated nuclei; assay: qPCR (Cq) of library yield, varying Pitstop-2 with Tn5 and TsTn5 transposases (Table 1B); format: cell-based, human
Text: as §1
Additional experiments were run using varying concentrations of Pitstop-2 and the Tn5 and TsTn5 transposases.

[4] = tested on: nuclei; assay: Flow cytometry of bead capture of FAM-labeled transposed nuclear material (Table 2); format: cell-based
[5] = tested on: unpurified nuclei; assay: Yield of ATAC-seq library from unpurified nuclei (Example 8, Table 3); format: cell-based; conditions: for Yield (nM) 150-1000 bp: 3% DMSO
Procedure: The concentration of each library was determined on the BioAnalyzer between the library range of 150-1000 bps plotted for each Pitstop-2 concentration (FIG. 7A). Additional experiments run at varying Pitstop-2 concentrations (5, 10, 30, 50, 100, and 200 μM) produced enhanced library yield over libraries produced in the absence of Pitstop-2 as shown by spectrophotometric analysis (Table 3).

[6] = tested on: Isolated nuclei of K562 cells; assay: Visualization of FAM-labeled transposome access to nuclei (Example 3, FIG. 3); format: cell-based, human; conditions: Pitstop-2 10 μM, 30 μM, 60 μM vs 2% DMSO control
Procedure: Using a standard cell culture protocol, 1×10^6 K562 cells (human lymphoma cell line) were collected from tissue culture flasks for tagmentation reaction. All cell pelleting/centrifugation steps were performed at 300×g for 3 min at 4° C. Freshly isolated cells were centrifuged and re-suspended in ice cold PBS (phosphate-buffered saline). The cells were pelleted again and incubated on ice while being suspended in 200 μL ice cold cell lysis buffer (Tris/NaCl/octylphenoxypolyethoxyethanol (IGEPAL CA-630 detergent)) for 5 min. Following this, nuclei were spun down for 3 min at 300×g, washed once with 200 of lysis buffer, and pelleted nuclei were transposed with Nextera Tn5 Transposase (TDE1) for 30 min at 55° C. in 1× Tagment DNA buffer (PN:15027866), supplemented with (a) Pitstop-2 in DMSO to yield 30 μM final Pitstop-2 concentration (test nuclei) or (b) 2% DMSO (control nuclei). Nuclei from each sample were pelleted and most of the supernatant was carefully removed.
The method of Example 1 was used to import FAM-labeled transposome complexes into nuclear compartments. Nuclei were isolated and treated as described in Example 1 using Nextera Tn5 transposase complexed with transposon sequence labeled during oligonucleotide synthesis at the 5′-end with FAM (6-FAM, Integrated DNA Technologies), and using the 2% DMSO control, and varying concentrations of Pitstop-2 (10 μM, 30 μM, and 60 μM).

[7] = tested on: K562 (human lymphoma cell line) nuclear content; assay: Sequencing of transposition (ATAC-seq) libraries from K562 nuclear content (Example 5, FIG. 4); format: cell-based
Text: DNA libraries were generated from K562 (human lymphoma cell line) nuclear content using methods as described in the preceding examples. […] As shown in FIG. 4A for the ATAC-seq profile over a portion of Chr 12, the libraries had targeted predominantly intergenic regions at all Pitstop-2 concentrations.

[8] = tested on: nuclei; assay: Agarose gel of indexed, amplified libraries of transposed nuclear DNA (Example 6, FIG. 5); format: cell-based; conditions: Pitstop-2 0, 10, 30, 60 μM
Procedure: Genomic DNA transposed with Nextera Tn5 Kit in the presence of Pitstop-2 (at concentrations of 0, 10, 30, and 60 μM) as described above was released from nuclei and was captured onto indexed beads containing oligonucleotide capture sequences. Bead-captured DNA was further gap-fill ligated to covalently link both strands of genomic DNA to common sequences (including unique indices) and amplified by PCR. […] Band intensity increases correlated with increases in Pitsthop-2 concentration. Corresponding DNA fragments covered by distinct number of nucleosomes of resulted libraries contained “nucleosomal banding,” indicating successful ATAC-seq tagmentation at regions free of nucleosomes.

[9] = tested on: Mouse (3T3) nuclei; assay: Single-cell ATAC-seq in droplets (Example 14, FIG. 11); format: cell-based
Procedure: Mouse (3T3) nuclei were treated with 0 μM, 30 μM, and 60 μM Pitstop-2 during cell lysis and transposition of nuclei. Pitstop-2 was used to open up nuclear pores and to allow increased transposition of open chromatin. A defined number of transposed nuclei set to ensure single nuclei occupancy was loaded into a QX200 Bio-Rad droplet generator with indexed beads designed to produce single-cell ATAC-seq libraries. Single cell libraries were PCR-amplified in droplets and then subjected to purification, and sequencing on a NextSeq® 550 Sequencing System.
Treatment of nuclei with Pitstop-2 allows more efficient transposition and increased unique coverage of open chromatin. In the presence of Pitstop-2, transposases target additional open chromatin regions outside of transcription start sites (TSS) (see FIG. 11B). […] Also observed were an alignment of pooled ATAC-seq reads generated with 0 μM, 30 μM, and 60 μM Pitstop-2 around GAPDH gene at chromosome 6 and an alignment of pooled ATAC-seq reads generated with 0 μM, 30 μM, and 60 μM Pitstop-2 around RPL10 gene at chromosome X (data not shown).

SMILES: CCCCCCCCCCCCOS(=O)(=O)[O-].[Na+] [SDS, sodium dodecyl sulfate]
- DeltaCt (no reverse transcription vs reverse transcription; relative cDNA synthesis efficiency) ([1]; Nuclei +0.1% SDS): 2.47

SMILES: O=C1N=C(NS(=O)(=O)c2cccc3ccccc23)SC1=Cc1ccc(Br)cc1 [Pitstop-2, N-[5-(4-bromobenzylidene)-4-oxo-4,5-dihydro-1,3-thiazol-2-yl]naphthalene-1-sulfonamide]
- library yield from intact nuclei vs untreated control ([2]; Pitstop-2 0 to 80 uM): increases library yield compared to the untreated control
- ΔCq-Pitstop-2 vs. Control ([2]; Pitstop-2 5 uM vs 0.05% DMSO control): −0.2
- Cq-Pitstop-2 ([2]; Pitstop-2 5 uM): 19.91
- ΔCq-Pitstop-2 vs. Control ([2]; Pitstop-2 10 uM vs 0.10% DMSO control): −0.65
- Cq-Pitstop-2 ([2]; Pitstop-2 10 uM): 20.00
- ΔCq-Pitstop-2 vs. Control ([2]; Pitstop-2 20 uM vs 0.20% DMSO control): −1.48
- Cq-Pitstop-2 ([2]; Pitstop-2 20 uM): 19.36
- ΔCq-Pitstop-2 vs. Control ([2]; Pitstop-2 40 uM vs 0.40% DMSO control): −1.26
- Cq-Pitstop-2 ([2]; Pitstop-2 40 uM): 19.94
- ΔCq-Pitstop-2 vs. Control ([2]; Pitstop-2 80 uM vs 0.80% DMSO control): −2.06
- Cq-Pitstop-2 ([2]; Pitstop-2 80 uM): 19.24
- Cq ([3]; Transposome Tn5, Pitstop 50 μM): 22.21
- Cq ([3]; Transposome Tn5, Pitstop 100 μM): 23.17
- Cq ([3]; Transposome Tn5, Pitstop 200 μM): 23.105
- Cq ([3]; Transposome Tn5, Pitstop 300 μM): 23.67
- Cq ([3]; Transposome TsTn5, Pitstop 50 μM): 18.32
- Cq ([3]; Transposome TsTn5, Pitstop 100 μM): 18.52
- Cq ([3]; Transposome TsTn5, Pitstop 200 μM): 18.55
- Cq ([3]; Transposome TsTn5, Pitstop 300 μM): 19.475
- Mean (MFU), bead capture ([4]; Pitstop-2 10 μM): 1297 MFU
- Mean (MFU), bead capture ([4]; Pitstop-2 30 μM): 1439 MFU
- Mean (MFU), bead capture ([4]; Pitstop-2 60 μM): 1488 MFU
- bead capture rates of FAM-labeled transposed libraries ([4]; Pitstop-2 treatment vs control pools): enhanced bead capture rates over control pools
- Yield (nM) 150-1000 bp ([5]; Pitstop-2 5 μM): 7.3 nM
- Yield (nM) 150-1000 bp ([5]; Pitstop-2 10 μM): 9.3 nM
- Yield (nM) 150-1000 bp ([5]; Pitstop-2 20 μM): 20.6 nM
- Yield (nM) 150-1000 bp ([5]; Pitstop-2 50 μM): 23.7 nM
- Yield (nM) 150-1000 bp ([5]; Pitstop-2 100 μM): 15.7 nM
- Yield (nM) 150-1000 bp ([5]; Pitstop-2 200 μM): 8.7 nM
- yield of ATAC-seq library on BioAnalyzer ([5]; Pitstop-2 10 and 100 μM, FIG. 7A): increased the yield of an ATAC-seq library
- boost of cDNA synthesis from nuclei over untreated nuclei ([1]; 30 μM Pitstop-2): 4-5 fold
- DeltaCt (no reverse transcription vs reverse transcription; relative cDNA synthesis efficiency) ([1]; Nuclei +30 μM Pitstop-2): 7.19
- influx of FAM-labeled transposomes into nuclei [6]: increased influx of FAM-labeled transposomes into the nuclear space
- ATAC-seq profile, normalized coverage over promoter and coding regions ([7]; 30 and 60 μM Pitstop-2, FIG. 4C): improved the ATAC-seq profile over controls
- diversity and uniqueness of whole genome sequencing coverage ([7]; Pitstop-2-treated samples over controls, FIG. 4B): better diversity and uniqueness
- access to chromatin regions (sequenced libraries) ([7]; Pitstop-2 treatment): enhanced access to transposase-accessible intergenic and open chromatin regions
- transposition yield by agarose gel electrophoresis [8]: clear increase in transposition yield
- ATAC-seq peak overlap (MACS-2), integrity of the assay ([9]; 0, 30, 60 μM Pitstop-2, FIG. 11C): did not change the overall integrity of the assay
- total number of unique reads ([9]; increasing Pitstop-2 (0, 30, 60 μM), barcodes >1 k, >10 k, >100 k unique reads, FIG. 11A): increase in the total number of unique reads
